# According to patent publication US11857601B2, “Pharmaceutical composition for cancer treatment comprising fusion protein including IL-2 protein and CD80 protein and anticancer drug” (GI INNOVATION, INC., priority 2020, dated 2024):
# Tests used:
# 4T1 cells [1] = test: mGI-101, anti-PD-L1 antibody and Docetaxel in 4T1 allotransplanted tumor model; format: in vivo, BALB/c mice
# Excerpt: This experiment was to evaluate the anticancer efficacy according to administration of the test substance mGI-101 alone or in combination with Docetaxel (Selleck Chemicals, cat. no. S1148) and the anti-PD-L1 antibody (BioXcell, cat. no. BE0101) in a tumor model allotransplanted with 4T1 cells (mouse breast cancer cells) into BALB/c mice.
# 4T1 cells were purchased from ATCC (USA) and cultured in RPMI1640 medium (Gibco) containing 10% FBS (Gibco) and 1% antibiotic/antifungal agent (Gibco). The cultured cells were harvested using trypsin (Gibco), and then a cell suspension was prepare with PBS and stored on ice until injected into mice. In order to establish an allotransplanted tumor model, after identifying the location of the second mammary fat pad from the upper right of the ventral region of BALB/c female mice (8-week-old), 4T1 cell line prepared inside the mammary fat pad was injected at 4×10^4 cells/40 μl/head.
# A certain period of time after cell inoculation of the tumor grafts of the mice, the tumor volume was measured for animals with no abnormalities in the health condition of the animals, and the subjects were selected so that the average of each group reached less than 70-100 mm^3, and the selected animals were assigned as evenly as possible based on tumor volume and body weight, each group including 10 animals.
# Docetaxel was dissolved in 100% DMSO, and then the volume was adjusted with 5% of DMSO, 30% of PEG300, 5% of Tween 80, and 60% of distilled water for injection (DMSO PEG300: Tween 80: distilled water for injection=5%: 30%: 5%: 60% (v:v:v:v)) and prepared.
# The Anti-PD-L1 antibody was prepared and administered using 1×PBS in consideration of dosage amount and volume. […]
# The tumor volume before administration of each subject was set as the value measured at the time of grouping, and the anti-tumor efficacy was evaluated as compared with the vehicle control. […]
# MC38 cells = test: mGI-101 and DMXAA in MC38 allotransplanted tumor model; format: in vivo, C57BL/6 mice; details: day 60 after tumor injection; mGI-101 6 mg/kg i.p. BIW, DMXAA 450 μg I.T.; 5 mice per group
# Protocol: In order to establish an allotransplanted tumor model, 5×10^5 of MC38 cells were subcutaneously injected into C57BL/6 mice. The tumor grafts of the mice were identified to be a size of 100-200 mm^3 about day 10 after cell inoculation, and the mice were assigned, each group including 5 mice.
# The size of the MC38 solid cancer was measured three times a week during the observation period, and the major axis (maximum length, L) and minor axis (perpendicular width, W) of the tumor were measured using a caliper, and the tumor volume (TV) was calculated by substituting them into the following equation, and once the tumor size was no less than 2 cm, the mice were sacrificed. TV (mm^3)=(W^2×L)/2 [Equation 1]
# HCT116 cells = test: Cancer cell killing, GI-101 and Pertuzumab, HCT116 with NK cells; format: cell-based, human; details: GI-101 0.4-100 nM, Pertuzumab 16.9 nM, 24 hours
# Excerpt: This experiment was to evaluate the effect of killing cancer cells by treating HCT116 cells (human colon cancer cells) with the test substance GI-101 alone or in combination with Pertuzumab substance in an in vitro environment.
# (§1) HCT116 cells were purchased from the Korea cell line bank and cultured in McCoy's 5A medium (ATCC) containing 10% FBS (Gibco) and 1% antibiotic/antifungal agent (Gibco). For use in cancer cell killing test, the cells were harvested using trypsin (Gibco), and then suspended in McCoy's 5A medium, and then dead cells and debris were removed using Ficoll (GE Healthcare Life Sciences) solution. The cells suspended in McCoy's 5A medium were carefully layered on ficoll solution. […]
# (§2) In order to identify the effect of killing the cells, a CytoTox Green reagent ([…]™ CytoTox Green, Satorius) that binds to the DNA of cells to be killed was prepared in 1 μl per 1 mL of RPMI1640 medium containing 5% human AB serum (Sigma). The prepared medium was used for dilution of the test substance, and the effect of killing the cells could be quantitatively identified by staining the cells to be killed when the test substance was co-cultured with cancer cell lines and PBMCs. […]
# MDA-MB-231 cells = test: Cancer cell killing, GI-101 and Ribociclib, MDA-MB-231 with PBMCs; format: cell-based, human; details: GI-101 100 nM, Ribociclib 913 nM, 24 hours, compared with co-culturing only cancer cells and PBMCs
# Excerpt: This experiment was to evaluate the effect of killing cancer cells by treating MDA-MB-231 cells (human breast cancer cells) with the test substance GI-101 alone or in combination with Ribociclib substance in an in vitro environment.
# as §1, with “MDA-MB-231” for “HCT116”, “RPMI1640” for “McCoy's 5A”, “(Gibco)” for “(ATCC)”
# as §2
# 4T1 cells [2] = test: mGI-101 and Abemaciclib in 4T1 allotransplanted tumor model; format: in vivo, BALB/c mice; details: 11 mice per group
# Protocol: 4T1 cells were purchased from ATCC (USA) and cultured in RPMI1640 medium (Gibco) containing 10% FBS (Gibco) and 1% antibiotic/antifungal agent (Gibco). The cultured cells were harvested using trypsin (Gibco) and then suspended in PBS. In order to establish an allotransplanted tumor model, 1×10^5 of 4T1 cells were subcutaneously injected into the back of BALB/c female mice (8-week-old).
# A certain period of time after cell inoculation of the tumor grafts of the mice, the tumor volume was measured for animals with no abnormalities in the health condition of the animals, and the mice were randomly selected and assigned, each group including 11 mice.
# The death of the mouse, the type of general symptoms, the date of onset, and the severity of symptoms were observed once a day during the test period, and recorded for each subject.
# The tumor volume before administration of each subject was set as the value measured at the time of grouping, and the anti-tumor efficacy was evaluated as compared with the vehicle control.
# All statistical calculations were performed using Prism 8.0 (Graph Pad Software Inc, USA). The comparison of tumor volume measurements was made through two-way analysis of variance followed by Tukey's multiple comparison test. A p value of less than 0.05 was considered significant.
# [3] = 4T1, end of the test, 10 animals per group
molecule,measurement,setting,value
CC(=O)O[C@@]12CO[C@@H]1C[C@H](O)[C@@]1(C)C(=O)[C@H](O)C3=C(C)[C@@H](OC(=O)[C@H](O)[C@@H](NC(=O)OC(C)(C)C)c4ccccc4)C[C@@](O)([C@@H](OC(=O)c4ccccc4)[C@H]21)C3(C)C [Docetaxel],number of mice with tumor growth inhibition rate of 30% or more,4T1 cells [1]; [3],5 mice
same,number of mice with tumor growth inhibition rate of 50% or more,4T1 cells [1]; [3],1 mice
same,anticancer effect (tumor size) compared with the control,"4T1 cells [1]; day 14, Docetaxel 15 mg/kg, mGI-101 3 mg/kg, aPD-L1 10 mg/kg i.p. QW",statistically significant anticancer effect
"Cc1ccc2c(=O)c3cccc(CC(=O)O)c3oc2c1C [DMXAA, reference compound]",survival rate,MC38 cells,60%
Pertuzumab: Her2 inhibitor [reference compound],effect of killing cancer cells,HCT116 cells,effect of killing cancer cells was not shown
"CN(C)C(=O)c1cc2cnc(Nc3ccc(N4CCNCC4)cn3)nc2n1C1CCCC1 [Ribociclib, reference compound]",effect of killing cancer cells,MDA-MB-231 cells,excellent effect of killing cancer cells
"CCN1CCN(Cc2ccc(Nc3ncc(F)c(-c4cc(F)c5nc(C)n(C(C)C)c5c4)n3)nc2)CC1 [Abemaciclib, reference compound]",number of mice with tumor growth inhibition rate of 30% or more,4T1 cells [2],4 mice
same,number of mice with tumor growth inhibition rate of 50% or more,4T1 cells [2],1 mice
same,number of mice with tumor growth inhibition rate of 80% or more,4T1 cells [2],1 mice
